Results on 89 molecules are retold here after a melting point compilation (Tetko et al.; mined from patent text by program, amines drawn as free bases though some values may be those of a salt).

Residues, ends and D or L forms follow the SMILES beside them. *: point of attachment. Tos = Cc1ccc(S(=O)(=O)*)cc1; Cam = NC(=O)C* Some results are limits rather than exact numbers.

One may read the melting point as the temperature of the solid-liquid transition. The molecule `COc1cccc(CCC(=O)O)c1OCCCc1cn(-c2ccc(C(F)(F)F)cn2)nc1C(C)C` had a melting point of 112 to 113 °C.

In turn, `CC(C)[C@@H](CO)NS(=O)(=O)c1ccc(Cl)cc1` came in with a melting point of 83 to 85 °C.

`CC(C)Oc1cc(-n2c(=O)cc(C(F)(F)C(F)(F)F)[nH]c2=O)c(F)cc1Cl` registered a melting point of 141 to 143 °C.

Turning to `CC(=O)Nc1nc2c(s1)-c1c(c(-c3c[nH]cn3)nn1-c1ccccc1Cl)CC2`, the melting point fell in the range of 287 to 288 °C.

Turning to `CC(C)(C)C1=NN(c2ccc(C(=O)O)cc2)C(c2ccccc2)C1` (centres undefined), the melting point was 233 °C.

Consider `COC1=CC(=O)c2cc(O)ccc2C1=O`, for which the melting point was in the range of 264 to 267 °C.

For the molecule `CCc1nsc(C(=O)O)c1C(=O)OC`, the melting point lay in the range of 43 to 45 °C.

Take `N#CCC(=O)N1CC=CCC1`: the melting point lay in the range of 58 to 59 °C.

`COc1ccc(C(=O)O)nc1Oc1cccc(C(F)(F)F)c1` gave a melting point of 116 to 118 °C.

`CCCOc1c(C2CCN(CCCCNC(=O)c3ccc(-c4ccc(C(F)(F)F)cc4)cc3)CC2)ccc2ccccc12` registered a melting point of 191 to 192 °C.

`Cc1nc2cc(Sc3cccc4cnccc34)c([N+](=O)[O-])cc2c(=O)[nH]1` showed a melting point of over 270 °C.

For the molecule `CCOC(=O)C(=O)Nc1cc(C)c(C)cc1C(N)=O`, the melting point fell in the range of 190 to 193 °C.

`Cc1c(C(=O)O)cnn1-c1cccc(Cl)c1` showed a melting point of 145 °C.

Molecule `COC(=O)c1ccc(-c2nc(-c3ccc(Cl)cc3)co2)cc1` returned a melting point of 183 to 184 °C.

In the case of `Cc1cc(-c2cc(C(F)(F)F)n3ncc(C(=O)Nc4cccc(S(=O)(=O)NC(C)(C)CO)c4)c3n2)ccc1C(F)(F)F`, the melting point stood at 230 °C.

In turn, `CC(C)c1nc(CCCO)n(Cc2ccncc2)c1Sc1cc(Cl)cc(Cl)c1` returned a melting point of 106 to 107 °C.

For the molecule `NC1=CC(=O)CC(c2ccsc2)C1` (centres undefined), the melting point was in the range of 142 to 143 °C.

Molecule `CC(C)(C)NC(=O)C(Cc1ccc(OCc2ccccc2)cc1)NC(=O)c1ccc(C(C)(C)C)cc1` (centres undefined) displayed a melting point of 124 to 131 °C.

Consider `CN1CCCC2(CCn3c(c(C4=C(c5cn(C)c6ccccc56)C(=O)NC4=O)c4ccccc43)C2)C1` (centres undefined), for which the melting point is 144 to 146 °C.

Molecule `CCOC(=O)c1cn(C2CC2)c2c(OC(F)F)c(F)c(F)cc2c1=O` displayed a melting point of 224 to 226 °C.

Consider `O=C1N[C@H](C(=O)O)CSCCCCCCCC1CS` (some centres undefined), for which the melting point lay within 169 to 173 °C.

Molecule `CON=CC(C)(C)NC(=O)c1c(Cl)cccc1C(=O)Nc1ccc(OC(F)(F)F)cc1C` registered a melting point of 197 °C.

The molecule `N#Cc1cnn(-c2ccc(OC(F)(F)F)cc2Cl)c1N` had a melting point of 115 °C.

Molecule `O=C(CCC(O)c1ccc(CCNS(=O)(=O)c2ccc(Cl)cc2)cc1)Nc1nnn[nH]1` (centres undefined) gave a melting point of 194 to 196 °C.

`NN1CN=Cc2c(NC3OC(CO)C(O)C3O)ncnc21` (centres undefined) registered a melting point of 209 to 214 °C.

Take `CONC(=O)COc1cc2c(cc1C#Cc1ccccc1)NC(=O)CC(c1cccc(C#N)c1)=N2`: the melting point was over 250 °C.

On to `O=C1Nc2cc(Cl)ccc2C1c1ncnc2nn(C3CCCCC3)cc12` (centres undefined), for which the melting point lay in the range of 299 to 303 °C.

As to `O=C(O)c1cc2ccnc(N(Cc3ccccc3)Cc3ccccc3)c2[nH]1`, the melting point fell in the range of 114 to 120 °C.

Regarding `CCCn1nc2c(N)nc3ncccc3c2c1CC(C)C`, the melting point lay in the range of 257 to 260 °C.

Consider `O=C1Nc2ccccc2Nc2ccsc21`, for which the melting point came to 226 °C.

In the case of `C#CCOc1ccc(C(=O)C=Cc2ccc(C#N)cc2)c(O)c1`, the melting point is 188 to 190 °C.

In the case of `CCCN(CCC)C(=O)C(CO)Nc1nc(-c2ccccc2)nc(C)c1C` (centres undefined), the melting point lay in the range of 132 to 133 °C.

`COc1ccc(CC2SC(=O)NC2=O)cc1CC(=O)Nc1ccc(Oc2ccccc2)cc1` (centres undefined) yielded a melting point of 82 to 84 °C.

In turn, `CC(=O)c1c(-c2cccs2)[nH]c(-c2ccncc2)c1C` came in with a melting point of 231 to 232 °C.

Turning to `COc1cc2c(c3c1OC(C)(C)C3)C(c1cccc(NC(=O)C3CCC(=O)N3)c1)=NC(C)(C)C2` (centres undefined), the melting point lay in the range of 145 to 147 °C.

`NS(=O)(=O)c1cc(C=O)cs1` gave a melting point of 146 to 149 °C.

Consider `CCN(CC)c1ccc(C2(c3c(C)n(CCOc4ccccc4)c4ccccc34)OC(=O)c3ccccc32)c(C)c1` (centres undefined), for which the melting point fell in the range of 182 to 183 °C.

The molecule `O=[N+]([O-])c1ccc2oc(Cc3ccccc3)cc2c1` had a melting point of 100 °C.

Consider `CCCCCCN1CCC(C(=O)NCC)(c2ccccc2)CC1`, for which the melting point fell in the range of 92 to 94 °C.

Molecule `Nc1nc(N)c(-c2cc(Cl)cc(Cl)c2Cl)c(C(F)(F)F)n1` had a melting point of 226 to 227 °C.

In the case of `CNC(=S)C1=C(O)C2(CCOCC2)Oc2ccc([N+](=O)[O-])cc21`, the melting point was 217 to 218 °C.

Consider `OCCCc1nc(-c2ccc(Cl)cc2)co1`, for which the melting point was 41 to 42 °C.

For the molecule `Cc1ccn(-c2ccc(S(N)(=O)=O)cc2)c1-c1ccc(F)cc1`, the melting point was in the range of 187 to 188 °C.

For the molecule `CC(=O)NC[C@H]1CN(c2cc(F)c(N3CCC(n4cccc4)CC3)c(F)c2)C(=O)O1`, the melting point was 186 to 188 °C.

`CC(C)N(C(=S)ON1C(=O)c2ccccc2C1=O)C(C)C` had a melting point of 73 to 75 °C.

Molecule `CC(C)(C)OC(=O)N1CCN(c2cccc3c2c(Br)cn3S(=O)(=O)c2ccccc2)CC1` showed a melting point of 188 to 189 °C.

With `OC(CN1CCC(c2noc3cc(F)ccc23)CC1)CN1CCc2ccccc2C1` (centres undefined), the melting point is 179 to 181 °C.

`COC(=O)CCc1ccc(-n2c(C)cn(-c3ccc(C(=N)NC(=O)OC)cc3)c2=O)cc1` yielded a melting point of 212 to 213 °C.

In turn, `CC12CCC1C(=O)OC2=O` (centres undefined) displayed a melting point of 59 to 60 °C.

With `CCOC(=O)c1c(C(C)C)csc1N`, the melting point was 61 to 61.5 °C.

The molecule `CC(CO)NCc1ccc(-c2cc3ncnc(Nc4ccc5[nH]ccc5c4)c3s2)cc1` (centres undefined) came in with a melting point of 160 to 175 °C.

The molecule `COC(=O)c1cc(O)ccc1NC(=O)c1ccc(Cl)cc1Cl` showed a melting point of 181 to 182 °C.

In the case of `COC(=O)c1cc(F)c(OC)nc1Nc1ccc(F)cc1F`, the melting point lay in the range of 160 to 161 °C.

Molecule `N#Cc1cc(-c2ccncc2)sc1-c1ccncc1` gave a melting point of 205 to 207 °C.

Turning to `Nc1nccc(OCc2ccccc2)c1[N+](=O)[O-]`, the melting point was 145 to 147 °C.

With `Cc1nc(-n2cc(OCc3ccccc3)ccc2=O)sc1C(=O)NCc1ccccc1`, the melting point fell in the range of 166 to 167 °C.

Turning to `CCC(=O)N(C)c1cccc(-c2ccc3nnc(NC)n3n2)c1`, the melting point was in the range of 212 to 213 °C.

For the molecule `CCOC(=O)c1cccn2c(C(=O)OCC)c(Cl)nc12`, the melting point was in the range of 105 to 106 °C.

Molecule `CC(C)C[C@H](NC(=O)COc1ccccc1)C(=O)N[C@@H](C(C)C)[C@H](O)c1c(-c2ccc(F)cc2)c1=O` showed a melting point of 75 to 79 °C.

Regarding `COc1nc(-c2ccccc2)c(-c2ccc(=O)n(C(C)C)n2)cc1C#N`, the melting point is 187 to 189 °C.

With `FC(F)(F)c1nc2cc(Cl)c(Cl)cc2nc1-c1nc2ccccc2o1`, the melting point lay within 157 to 158 °C.

In turn, `CCCCc1ccc(C(=O)NCCCCCCO)cc1` displayed a melting point of 80 to 81 °C.

For the molecule `O=C1CCC(N2Cc3c(OCc4ccc(CN5CCN(c6ccccn6)CC5)cc4)cccc3C2=O)C(=O)N1` (centres undefined), the melting point is 165 to 167 °C.

On to `CC(=O)OCCOCn1cnc2c(Cl)nc(Cl)nc21`, for which the melting point was in the range of 96 to 99 °C.

In turn, `O=C(CCc1cc(C2CCCCC2)c(O)c(C2CCCCC2)c1)OCCCCCCOC(=O)CCc1cc(C2CCCCC2)c(O)c(C2CCCCC2)c1` showed a melting point of 113 to 115 °C.

For the molecule `COC(=O)c1ccc(=O)n(N)c1`, the melting point lay within 136 to 137 °C.

The molecule `COc1ccc(C(=O)c2cccc(Br)c2F)cc1` came in with a melting point of 88 to 90 °C.

The molecule `CCOC(=O)C(=O)c1ccc(SCC2CC2)[nH]1` came in with a melting point of 46 °C.

In turn, `CCCCc1ncc([N+](=O)[O-])c(O)n1` showed a melting point of 67 to 69 °C.

In the case of `O=C1c2ccccc2C(=O)N1Cc1nnc2n1-c1ccc(Cl)cc1C(c1ccccc1F)=CC2`, the melting point fell in the range of 235 to 237 °C.

Turning to `CC(=O)C(=O)NC(=O)[C@@H](N)Cc1ccccc1`, the melting point was 138 to 140 °C.

In turn, `CCOC(=O)NNC1=Nc2sc(CC)cc2C(c2ccccc2Cl)=NC1` came in with a melting point of 207 °C.

The molecule `CC1CC(C)OP(=O)(Cc2ccc([N+](=O)[O-])cc2)O1` (centres undefined) displayed a melting point of 152 to 153 °C.

`O=C(O)COc1ccc2c(c1)CCc1sc(S(=O)(=O)CCC(c3ccccc3)c3ccccc3)nc1-2` showed a melting point of 175 to 177 °C.

Molecule `CCOC(=O)CCCOc1ccc(NC(=O)c2ccc(C(C)(C)C)cc2)cc1` displayed a melting point of 100 to 101 °C.

For the molecule `Cc1ccc(S(=O)(=O)N2CCC[C@H]2C(=O)N[C@@H](Cc2ccc(OCC(N)=O)cc2)C(=O)O)cc1` (Tos-Pro-Tyr(Cam)-OH), the melting point is 195 to 196 °C.

`CCCCCCSC1=CC(=O)NC1=O` registered a melting point of 99 to 101 °C.

For the molecule `OC[C@H]1C[C@H]2CN(c3ncc(F)cn3)CCN2C1`, the melting point lay in the range of 123 to 124 °C.

For the molecule `O=[N+]([O-])c1cc(Cl)ccc1N1CCc2cc(Cl)ccc21`, the melting point lay in the range of 130 to 133 °C.

Regarding `COc1cc(N)ccc1-c1ccc(-c2ccc(N)cc2OC)o1`, the melting point fell in the range of 201 to 202 °C.

In turn, `CC(C)(COc1ccc(O)c(C(N)=O)c1)NCC(O)COc1ccccc1C#N` (centres undefined) came in with a melting point of 125 to 126 °C.

Consider `COc1ccc(OC)c(C(=O)Cl)c1`, for which the melting point was 36 to 38 °C.

In turn, `Cc1cc(-c2ncn3c(C(F)(F)F)cc(-c4ccc(C(F)(F)F)cc4)nc23)ccn1` showed a melting point of 257 °C.

On to `NC(=O)OC(=O)[C@@H]1Cc2ccccc2CN1C(=O)OCc1ccccc1`, for which the melting point lay within 136 to 138 °C.

In the case of `CC(C)(C)COc1cccc(C[C@@H](NC(=O)c2cccc3c2C=CCCC3)[C@@H](O)c2cccc(Cl)c2)c1` (racemic), the melting point was 128 to 129 °C.

The molecule `CCN1NN(N)N=C1C` had a melting point of 45 to 50 °C.

Take `COc1ccc2c(c1)C(=O)N(c1ccc3c(ccn3C)c1)C2`: the melting point lay in the range of 193 to 197 °C.

In the case of `COCC1CN(c2ccc3cc(O)ccc3c2)C(=O)O1` (centres undefined), the melting point was in the range of 190 to 191 °C.

On to `COc1c(Cl)ccc(Cl)c1C(=O)NN`, for which the melting point fell in the range of 144 to 145 °C.
